In patent publication US10913709B2, “STAT3 inhibitor formulation” (priority 2017, dated 2021):

How the values were obtained:
[1] = Stability in acetonitrile extract (post sample preparation); format: physicochemical; conditions: 6 days
Experimental: In particular, once the centrifugation was performed on the blood samples to provide the plasma samples for analysis, extraction into acetonitrile was done as quickly as possible (e.g., <1 hour).

[2] = tested on: DMBA-induced mammary cancer; test: Chemoprevention study of DMBA-induced mammary cancer
From the text: The negative control group received vehicle (purified water) only. In order to accelerate tumor formation, the mice were also given 7,12-dimethylbenz[a]anthracene (DMBA) by gavage 1 time/week for 4 weeks beginning at 57 days of age. The study was terminated 4 months after DMBA exposure. During the treatment period, the body weights of the mice and the appearance of palpable mammary tumors were monitored on a weekly and twice-weekly basis, respectively.

[3] = Aqueous solubility in the presence of various bases (Example 1); format: physicochemical
From the text: (§1) The resulting mixtures were examined for both solubility and stability with the results being analyzed high-performance liquid chromatography (HPLC) with UV and mass spectroscopy detection.

[4] = Plasma stability in mouse plasma; format: in vitro ADME
Experimental: An hour-by-hour analysis was then conducted, showing a marked decrease at ambient conditions (see Table 4). […] It should be noted that the time measurement for ambient is listed in hours (Table 4) compared with the time for the −20° C., which was measured in days (Table 5).

[5] = Observation for toxicity and mortality in the PK study; format: in vivo
Experimental: Mice were weighed within 72 hours of receipt and again on Study Day −1. Mice were observed once daily prior to day 0, and at least twice daily beginning on day 0 for 24 hours post-dose for morbidity and moribundity.

[6] = tested on: Ki67 expression; test: Ki67 expression in normal mammary gland, immunohistochemical analysis; conditions: two weeks of treatment
[7] = Body weight and toxicity during the chemoprevention study; format: in vivo, female MMTV/Neu mice; conditions: gavage 5 times/week, 500, 250, and 100 mg/kg BW/day, throughout the experiment
[8] = Stability in water in the presence of various bases, HPLC with UV and MS detection (Example 1); format: physicochemical
From the text: as §1

[9] = cited from earlier work

For `Cc1ccc(S(=O)(=O)OCC(=O)Nc2ccc(C(=O)O)c(O)c2)cc1` [Compound 1], the “stability in an acetonitrile extract” value [1] was “little/no degradation”, the “effect in preventing breast cancer” value ([2]; 500 mg/kg BW/day by gavage) was “greatest effect” and the “onset of DMBA-induced breast cancer” value ([2]; all doses tested (500, 250, and 100 mg/kg BW/day by gavage)) was “able to delay the onset”. The “incidence, multiplicity, and weights of mammary tumors compared to the vehicle-only control” value ([2]; gavage 5 times/week, 500, 250, and 100 mg/kg BW/day, DMBA-accelerated, 4 months) was “dose-dependent decrease”, the solubility in water ([3]; water) was “highly soluble in water” and the recovery at 0 h ([4]; ambient conditions, 0 hours) was 88.6%. For the same compound, the recovery at 1 h ([4]; ambient conditions, 1 hour) was 61.2%, the recovery at 2 h ([4]; ambient conditions, 2 hours) was 52.6% and the recovery at 3 h ([4]; ambient conditions, 3 hours) was 28.7%. For the same compound, the recovery at 5 h ([4]; ambient conditions, 5 hours) was 21.3%, the recovery at 6 h ([4]; ambient conditions, 6 hours) was 15.8% and the “plasma stability, daily assessment” value ([4]; samples assessed daily, no free acid observed after 1 day) was “stability was short”. It also gave a recovery at 0 days ([4]; −20° C., 0 days) of 94.5%, a recovery at 1 days ([4]; −20° C., 1 day) of 76.6% and a recovery at 2 days ([4]; −20° C., 2 days) of 65.7%. For the same compound, the recovery at 3 days ([4]; −20° C., 3 days) was 58%, the recovery at 6 days ([4]; −20° C., 6 days) was 46.6% and the “signs of toxicity post-dose” value ([5]; groups A-H: IV 50 mg/kg, PO 500, 250, 125 mg/kg, observed 24 hours post-dose) was “None of the mice in groups A-H demonstrated signs of toxicity”. The mortality ([5]; oral or IV administration, any of the doses administered) was “no mortality”, the “inhibition of Ki67” value ([6]; 250 mg/kg BW/day) was 85% and the “inhibition of Ki67” value ([6]; 500 mg/kg BW/day) was 83%. The “weight loss or toxicity” value [7] was “No weight loss or toxicity was observed”.

For `Cc1ccc(S(=O)(=O)OCC(=O)Nc2ccc(C(=O)O)c(O)c2)cc1` [NSC-74859], the solubility ([3]; water with 1.1 molar equivalents of TRIZMA base, aqueous buffer, thermodynamic from solid, with 1.1 molar equivalents TRIZMA (2-amino-2-(hydroxymethyl)-1,3-propanediol), pH 7 water) was ~60 mg/mL, the aqueous solubility ([3]; with 1.1 molar equivalents of base in water, all bases examined (LiOH, NaOH, K2CO3, NaHCO3, TRIZMA)) was “good aqueous solubility” and the “degradation (loss of the tosylate group)” value ([8]; in stronger bases, such as sodium hydroxide, in water) was “Degradation was much more pronounced”. The “time the product remained stable” value ([8]; with TRIZMA, in water at room temperature, initial analysis) was ~8 h and the “solubility in water and ethanol” value [9] was “poorly soluble in water and ethanol”.
